From patent US20210276987A1, “PHARMACEUTICAL AGENTS FOR USE IN SMOKING AND TOBACCO CESSATION” (Washington State University, priority 2018, published 2021) come the findings set out here.

The target in one series is T1, CYP2B6 (Homo sapiens, UniProt P20813).
T1 sequence (P20813 1-491): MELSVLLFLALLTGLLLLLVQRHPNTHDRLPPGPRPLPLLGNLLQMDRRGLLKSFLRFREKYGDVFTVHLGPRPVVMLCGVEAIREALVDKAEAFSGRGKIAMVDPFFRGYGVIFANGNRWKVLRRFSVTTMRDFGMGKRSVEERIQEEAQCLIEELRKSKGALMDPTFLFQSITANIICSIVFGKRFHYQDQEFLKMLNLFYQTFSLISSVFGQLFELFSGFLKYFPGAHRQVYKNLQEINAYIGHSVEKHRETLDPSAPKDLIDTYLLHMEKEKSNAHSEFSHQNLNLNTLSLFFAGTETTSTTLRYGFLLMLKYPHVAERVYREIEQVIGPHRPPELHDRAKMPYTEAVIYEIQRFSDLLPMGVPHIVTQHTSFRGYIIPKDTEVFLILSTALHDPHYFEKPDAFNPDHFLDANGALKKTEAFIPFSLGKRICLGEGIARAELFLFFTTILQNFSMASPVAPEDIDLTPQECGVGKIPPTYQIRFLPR
Conditions: Table 6.

In another series the target is CYP2C9 (Homo sapiens, UniProt P11712). Kind of series: CYP2C9 inhibition assay, human liver microsomes, diclofenac probe (cocktail). Conditions: Table 6. A general note: Microsomes from liver hold many membrane-bound enzymes, among them those of drug oxidation.
Sequence of CYP2C9 (P11712 whole entry): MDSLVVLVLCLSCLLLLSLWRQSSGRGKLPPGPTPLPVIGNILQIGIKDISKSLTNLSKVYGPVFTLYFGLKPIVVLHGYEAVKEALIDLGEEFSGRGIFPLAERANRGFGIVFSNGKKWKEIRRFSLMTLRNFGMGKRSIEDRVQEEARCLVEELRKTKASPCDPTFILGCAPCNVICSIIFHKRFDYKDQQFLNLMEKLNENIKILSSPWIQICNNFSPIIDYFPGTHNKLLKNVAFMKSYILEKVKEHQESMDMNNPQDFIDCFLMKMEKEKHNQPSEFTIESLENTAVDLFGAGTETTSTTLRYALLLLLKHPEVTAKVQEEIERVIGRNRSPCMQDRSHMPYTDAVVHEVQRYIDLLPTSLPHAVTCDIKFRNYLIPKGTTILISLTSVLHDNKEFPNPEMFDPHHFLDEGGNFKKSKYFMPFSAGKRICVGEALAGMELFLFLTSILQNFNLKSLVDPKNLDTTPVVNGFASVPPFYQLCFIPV
Another series addresses T2, UGT2B10 (Homo sapiens, UniProt P36537).
T2 sequence (P36537 24-528): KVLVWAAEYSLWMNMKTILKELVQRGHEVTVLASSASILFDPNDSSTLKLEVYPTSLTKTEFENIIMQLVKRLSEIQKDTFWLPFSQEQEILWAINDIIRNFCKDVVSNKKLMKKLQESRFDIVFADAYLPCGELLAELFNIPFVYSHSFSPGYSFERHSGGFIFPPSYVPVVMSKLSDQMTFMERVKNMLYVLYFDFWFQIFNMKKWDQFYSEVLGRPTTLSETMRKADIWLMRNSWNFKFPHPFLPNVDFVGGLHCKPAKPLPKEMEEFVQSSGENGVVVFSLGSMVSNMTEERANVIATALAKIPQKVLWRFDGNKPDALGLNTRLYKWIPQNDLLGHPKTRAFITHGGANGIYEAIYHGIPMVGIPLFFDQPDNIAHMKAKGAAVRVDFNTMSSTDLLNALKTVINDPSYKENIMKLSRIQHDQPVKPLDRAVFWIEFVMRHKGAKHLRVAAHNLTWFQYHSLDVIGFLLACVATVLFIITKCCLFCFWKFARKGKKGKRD
As to the kind of experiment: biochemical. As for the experimental part: Initial screening assays were performed as described above for the CYP assays using 1 μM or 10 μM of each of the NAs. The inhibitory effects of each agent against UGT2B10 was performed using the known UGT2B10-specific probe substrate, nicotine, in pooled human liver microsomes. […] Pre-incubations containing 500 μM nicotine and 1 or 10 μM NA were subsequently performed at 37° C. in 50 mM Tris-HCl buffer (pH 7.5, in a final volume of 50 μL) and 10 mM MgCl2 for 5 minutes.

Another series has as its target UGT1A9 (Homo sapiens, UniProt O60656). To be noted: Table 10.

Sequence of UGT1A9 (O60656 26-530): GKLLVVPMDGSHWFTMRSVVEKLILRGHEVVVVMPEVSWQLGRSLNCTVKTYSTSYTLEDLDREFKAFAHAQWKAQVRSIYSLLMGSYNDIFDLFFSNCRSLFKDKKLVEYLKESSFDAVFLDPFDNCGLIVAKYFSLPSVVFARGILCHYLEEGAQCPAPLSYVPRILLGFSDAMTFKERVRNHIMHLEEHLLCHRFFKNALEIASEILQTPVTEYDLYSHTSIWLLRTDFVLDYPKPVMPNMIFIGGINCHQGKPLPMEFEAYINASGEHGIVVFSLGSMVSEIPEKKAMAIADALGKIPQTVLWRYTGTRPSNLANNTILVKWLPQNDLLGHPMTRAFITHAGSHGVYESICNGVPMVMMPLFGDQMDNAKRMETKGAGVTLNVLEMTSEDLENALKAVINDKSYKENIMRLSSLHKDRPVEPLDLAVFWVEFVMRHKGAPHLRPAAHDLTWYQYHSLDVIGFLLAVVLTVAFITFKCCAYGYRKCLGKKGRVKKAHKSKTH

What is called IC50 is the concentration that gives 50% inhibition. The low end stands for greater potency in that assay, the high end for weaker potency in that assay. Take `COc1ccncc1C#CCN` [Compound K, 3-(4-methoxypyridin-3-yl)prop-2-yn-1-amine]: on CYP2B6, the “IC50 ratio CYP2B6/CYP2A6” value stood at 3.2. Moreover, the “IC50 ratio CYP2C9/CYP2A6” value on CYP2C9 was found to be 8.2. Also, the half-inhibitory concentration (IC50) at UGT2B10 (IC50 against UGT2B10) is below 60 µM; at UGT2B10 (IC50 against UGT2B10 (μM), Table 9, pooled human liver microsomes, nicotine 500 μM) it was 33 µM. Moreover, at UGT1A9, the “IC50 ratio UGT1A9/UGT2B10” value is 5.
